In brackets after ≈: the same amount, converted by molar mass. Read-outs that look alike come from different tables or passages of the source. One block for each molecule: values may come before it.
How the values were obtained:
[1] = biological target: T1, serine/threonine kinase IreK (Enterococcus faecalis, UniProt Q820A8); experiment: biochemical
T1 sequence (Q820A8 1-718): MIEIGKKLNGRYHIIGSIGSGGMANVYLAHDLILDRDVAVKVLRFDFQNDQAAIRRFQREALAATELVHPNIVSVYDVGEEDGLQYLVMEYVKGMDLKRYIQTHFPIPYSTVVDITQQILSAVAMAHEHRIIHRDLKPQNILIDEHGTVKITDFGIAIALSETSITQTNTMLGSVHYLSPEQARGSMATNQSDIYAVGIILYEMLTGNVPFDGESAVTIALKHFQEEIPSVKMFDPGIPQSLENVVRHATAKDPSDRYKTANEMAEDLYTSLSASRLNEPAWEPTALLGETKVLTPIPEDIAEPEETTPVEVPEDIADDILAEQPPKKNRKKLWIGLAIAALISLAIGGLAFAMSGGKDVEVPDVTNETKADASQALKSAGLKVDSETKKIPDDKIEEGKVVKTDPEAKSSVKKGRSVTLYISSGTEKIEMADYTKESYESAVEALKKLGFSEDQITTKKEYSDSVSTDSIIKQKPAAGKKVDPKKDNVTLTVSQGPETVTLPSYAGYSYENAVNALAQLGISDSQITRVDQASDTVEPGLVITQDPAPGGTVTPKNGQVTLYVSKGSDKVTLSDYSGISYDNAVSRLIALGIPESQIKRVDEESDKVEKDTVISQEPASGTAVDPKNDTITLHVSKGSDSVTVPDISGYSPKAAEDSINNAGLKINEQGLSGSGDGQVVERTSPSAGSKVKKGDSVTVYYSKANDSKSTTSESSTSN

[2] = biological target: E. coli DNA-gyrase (Escherichia coli, UniProt P0AES6); experiment: biochemical; type: biochemical; conditions: for inhibition of DNA-gyrase: at the highest tested concentrations
[3] = system: B. subtilis JH642; experiment: Growth curves to distinguish bactericidal from bacteriostatic activity; type: cell-based, Bacillus subtilis; conditions: for bactericidal or bacteriostatic: 50 μg/ml added at OD600 0.5-0.6; for cell lysis in growing culture: 50 μg/ml, time course of 9 h, compared with vancomycin
[4] = system: MRSA TCH1516 USA300; conditions: for diameter of the ring of growth inhibition: 20 μg of compound per disk; for growth inhibition, disk diffusion: 100 μg per disk
[5] = system: resistant isolates (E. coli and S. aureus); type: cell-based
[6] = system: S. aureus C1BP13 (MRSA); experiment: Antibiotic susceptibility with and without 6d, broth microdilution; type: cell-based; conditions: Staphylococcus aureus
[7] = biological target: Gyrase B; conditions: ligand of complex PDB: 3TTZ; cited from earlier work
[8] = system: E. coli ARS108 (Extended Spectrum Beta Lactamase); experiment: Antibiotic susceptibility with and without 6d, broth microdilution; type: cell-based, Escherichia coli
[9] = system: E. coli G28 (beta lactamase); experiment: microbe, parasite or virus in culture; type: cell-based; conditions: Escherichia coli
[10] = system: S. aureus C1P15 (penicillinase); experiment: microbe, parasite or virus in culture; type: cell-based; conditions: Staphylococcus aureus
[11] = system: E. coli G02 (ofloxacin-resistant); experiment: Antibiotic susceptibility with and without 6d, broth microdilution; type: cell-based, Escherichia coli; conditions: for MBC / MIC: Escherichia coli
[12] = system: E. coli ATCC25922 (quality control strain); experiment: Antibiotic susceptibility, broth microdilution; type: cell-based; conditions: Escherichia coli
[13] = Escherichia coli, 144 h, read-out: MBC [with 6d]
[14] = Escherichia coli, 144 h, read-out: MIC [with 6d]

SMILES: CC(=O)c1ccc(-c2cccc(N)c2)s1 [Compound 6h, 1-(5-(3-aminophenyl)thiophen-2-yl)ethanone]
- IC50 [1]: > 800 µM
- IC50 [2]: > 800 µM

SMILES: O=[N+]([O-])c1ccc(-c2cccc(O)c2)s1 [Compound 6e, 3-(5-nitrothiophen-2-yl)phenol]
- bactericidal or bacteriostatic [3]: bactericidal rather than bacteriostatic
- cell lysis in growing culture [3]: more rapid cell lysis and clearing of the culture
- IC50 [1]: > 800 µM
- IC50 [2]: > 800 µM
- ring of growth inhibition ([4]; 4 μg per disk): reduced ring of growth inhibition
- diameter of the ring of growth inhibition [4]: did not change
- growth inhibition, disk diffusion [4]: clear rings of growth inhibition

SMILES: Nc1ccc(-c2ccc([N+](=O)[O-])s2)cc1 [Compound 6c, 4-(5-nitro-2-thienyl)benzenamine]
- IC50 [1]: > 800 µM
- IC50 [2]: > 400 µM
- inhibition of DNA-gyrase [2]: inhibited DNA-gyrase

SMILES: O=[N+]([O-])c1ccc(-c2ccccc2O)s1 [Compound 6d, 2-(5-nitrothiophen-2-yl)phenol]
- adjuvant activity in association with several antibiotics ([5]; resistant isolates of E. coli and S. aureus): restored the sensitivity of the resistant isolates tested
- concentration with bactericidal activity when used alone ([5]; without antibiotic, all isolates): over 32 μg/mL
- bactericidal or bacteriostatic [3]: bactericidal rather than bacteriostatic
- cell lysis in growing culture [3]: slow bacterial lysis
- IC50 [1]: > 800 µM
- IC50 [2]: ≥ 400 µM
- inhibition of DNA-gyrase [2]: inhibited DNA-gyrase
- diameter of the ring of growth inhibition [4]: did not change
- growth inhibition, disk diffusion [4]: clear rings of growth inhibition

- MIC [6]: > 8 mg/L
- MIC ([6]; 144 h, read-out: MIC [with 6d]): < 0.015 mg/L
SMILES: Cc1onc(-c2ccccc2Cl)c1C(=O)N[C@@H]1C(=O)N2[C@@H]1SC(C)(C)[C@@H]2C(=O)O [CLX, cloxacillin]
- MBC [6]: > 8 mg/L
- MBC ([6]; 144 h, read-out: MBC [with 6d]): > 8 mg/L

SMILES: O=C(O)c1cn(C2CC2)c2cc(N3CCNCC3)c(F)cc2c1=O [ciprofloxacin]
- inhibition of DNA-gyrase induced supercoiling of relaxed plasmid DNA ([2]; control at 200 μM): completely inhibited

SMILES: COc1cccc(-c2ccc([N+](=O)[O-])s2)c1OC [Compound 6s, 2-(2,3-dimethoxyphenyl)-5-nitrothiophene]
- IC50 [1]: > 800 µM
- IC50 [2]: > 800 µM

SMILES: Cc1[nH]c(C(=O)N[C@@H]2CCN(c3ncc(C(=O)O)s3)C[C@@H]2F)c(Cl)c1Cl [pyrrolamide, 2-[(3S,4R)-4-{[(3,4-dichloro-5-methyl-1H-pyrrol-2-yl)carbonyl]amino}-3-fluoropiperidin-1-yl]-1,3-thiazole-5-carboxylic acid]
- IC50 [7]: 0.004 µM

SMILES: CO/N=C(\C(=O)N[C@@H]1C(=O)N2C(C(=O)O)=C(COC(C)=O)CS[C@H]12)c1csc(N)n1 [CTX, cefotaxime]
- MIC ([8]; ARS108, antibiotic alone): > 8 mg/L
- MIC [with 6d] ([8]; ARS108, with 6d at 50μg/mL): < 0.03 mg/L
- MBC ([8]; Escherichia coli): > 8 mg/L
- MIC ([8]; Escherichia coli): > 16 mg/L
- MBC [8, 13]: > 8 mg/L
- MIC [8, 14]: 0.03 mg/L (≈ 0.0659 µM)
- MIC [9]: > 16 mg/L

SMILES: CC(=O)c1ccc(-c2ccc(N)cc2)s1 [Compound 6i, 1-(5-(4-aminophenyl)thiophen-2-yl)ethanone]
- IC50 [1]: > 800 µM
- IC50 [2]: > 800 µM

SMILES: CC(=O)c1ccc(-c2cccc(O)c2)s1 [Compound 6k, 1-(5-(3-hydroxyphenyl)thiophen-2-yl)ethanone]
- IC50 [1]: > 800 µM
- IC50 [2]: > 400 µM
- inhibition of DNA-gyrase [2]: inhibited DNA-gyrase

- MIC [6]: > 8 mg/L
- MIC ([6]; 144 h, read-out: MIC [with 6d]): < 0.015 mg/L
- MIC [10]: > 8 mg/L
- MIC ([10]; 144 h, read-out: MIC [with 6d]): < 0.015 mg/L
SMILES: CC1(C)S[C@@H]2[C@H](NC(=O)Cc3ccccc3)C(=O)N2[C@H]1C(=O)O [PNG, penicillin G]
- MBC [6]: > 8 mg/L
- MBC ([6]; 144 h, read-out: MBC [with 6d]): 4 mg/L (≈ 12 µM)
- MBC [10]: > 8 mg/L
- MBC ([10]; 144 h, read-out: MBC [with 6d]): 2 mg/L (≈ 5.98 µM)

SMILES: O=[N+]([O-])c1ccc(-c2ccc(NCCO)cc2)s1 [Compound 7c, 2-((4-(5-nitrothiophen-2-yl)phenyl)amino)ethanol]
- IC50 [1]: > 800 µM
- IC50 [2]: > 400 µM
- inhibition of DNA-gyrase [2]: inhibited DNA-gyrase

SMILES: CC1(C)S[C@@H]2[C@H](NC(=O)[C@H](N)c3ccc(O)cc3)C(=O)N2[C@H]1C(=O)O [AMX, amoxicillin]
- MBC ([8]; Escherichia coli): > 16 mg/L
- MIC ([8]; Escherichia coli): > 16 mg/L
- MBC [8, 13]: > 16 mg/L
- MIC [8, 14]: 0.03 mg/L (≈ 0.0821 µM)
- MBC [9]: > 16 mg/L
- MIC [9]: > 16 mg/L
- MBC ([9]; 144 h, read-out: MBC [with 6d]): 8 mg/L (≈ 21.9 µM)

SMILES: CC1COc2c(N3CCN(C)CC3)c(F)cc3c(=O)c(C(=O)O)cn1c23 (centres unmarked) [OFX, ofloxacin]
- MBC [11]: > 8 mg/L
- MIC [11]: > 8 mg/L
- MBC ([11]; 144 h, read-out: MBC [with 6d]): > 8 mg/L
- MIC ([11]; 144 h, read-out: MIC [with 6d]): < 0.015 mg/L
- bactericidal effect of the antibiotic after addition of 6d ([11]; G02-resistant strain, with 6d): did not restore the bactericidal effect
- MIC [12]: 0.06 mg/L (≈ 0.166 µM)
